Test results published in article PMC11855478, “Bicyclic N,S-Acetals Containing Fused Cysteine-Amide System as New Heterocyclic Class Targeting Human Farnesyltransferase (FTase-h)” (International Journal of Molecular Sciences, 2025).

How the values were obtained:
Type in all cases: cell-based, human
SR (Leukemia) = assay: NCI one dose, SR; settings: 1.00E-5 Molar one dose
Procedure: (§1) 3.4. Cell Proliferation Assay
(§2) Selected compounds were tested on a panel of 60 human cancer cell lines at the National Cancer Institute (NCI), Germantown, MD, USA. The cytotoxicity studies were conducted using a 48 h exposure protocol using the sulfo-rhodamine B assay.

HCT-116 (Colon Cancer) = assay: NCI one dose, HCT-116; settings: HCT-116, 1.00E-5 Molar one dose
Procedure: as §1, §2

K-562 leukaemia cells = assay: NCI one dose, K-562; settings: K-562, 1.00E-5 Molar one dose
Procedure: as §1, §2

IGROV1 (Ovarian Cancer) = assay: NCI one dose, IGROV1; settings: IGROV1, 1.00E-5 Molar one dose
Procedure: as §1, §2

RPMI-8226 (Leukemia) = assay: NCI one dose, RPMI-8226; settings: RPMI-8226, 1.00E-5 Molar one dose
Procedure: as §1, §2

OVCAR-4 (Ovarian Cancer) = assay: NCI one dose, OVCAR-4; settings: OVCAR-4, 1.00E-5 Molar one dose
Procedure: as §1, §2

T-47D (Breast Cancer) = assay: NCI one dose, T-47D; settings: 1.00E-5 Molar one dose
Procedure: as §1, §2

PC-3 (Prostate Cancer) = assay: NCI one dose, PC-3; settings: PC-3, 1.00E-5 Molar one dose
Procedure: as §1, §2

[1] = system: NCI-H23 (Non-Small Cell Lung Cancer); assay: NCI one dose, NCI-H23; settings: NCI-H23, 1.00E-5 Molar one dose
Procedure: as §1, §2

HS 578T (Breast Cancer) = assay: NCI one dose, HS 578T; settings: 1.00E-5 Molar one dose
Procedure: as §1, §2

HCC-2998 (Colon Cancer) = assay: NCI one dose, HCC-2998; settings: HCC-2998, 1.00E-5 Molar one dose
Procedure: as §1, §2

RXF 393 (Renal Cancer) = assay: NCI one dose, RXF 393; settings: RXF 393, 1.00E-5 Molar one dose
Procedure: as §1, §2

SNB-75 (CNS Cancer) = assay: NCI one dose, SNB-75; settings: SNB-75, 1.00E-5 Molar one dose
Procedure: as §1, §2

SW-620 (Colon Cancer) = assay: NCI one dose, SW-620; settings: SW-620, 1.00E-5 Molar one dose
Procedure: as §1, §2

SK-MEL-2 (Melanoma) = assay: NCI one dose, SK-MEL-2; settings: SK-MEL-2, 1.00E-5 Molar one dose
Procedure: as §1, §2

OVCAR-8 (Ovarian Cancer) = assay: NCI one dose, OVCAR-8; settings: OVCAR-8, 1.00E-5 Molar one dose
Procedure: as §1, §2

[2] = system: MDA-MB-231/ATCC (Breast Cancer); assay: NCI one dose, MDA-MB-231/ATCC; settings: 1.00E-5 Molar one dose
Procedure: as §1, §2

DU-145 (Prostate Cancer) = assay: NCI one dose, DU-145; settings: DU-145, 1.00E-5 Molar one dose
Procedure: as §1, §2

CAKI-1 (Renal Cancer) = assay: NCI one dose, CAKI-1; settings: CAKI-1, 1.00E-5 Molar one dose
Procedure: as §1, §2

[3] = system: EKVX (Non-Small Cell Lung Cancer); assay: NCI one dose, EKVX; settings: 1.00E-5 Molar one dose
Procedure: as §1, §2

[4] = system: NCI/ADR-RES (Ovarian Cancer); assay: NCI one dose, NCI/ADR-RES; settings: 1.00E-5 Molar one dose
Procedure: as §1, §2

MCF7 (Breast Cancer) = assay: NCI one dose, MCF7; settings: MCF7, 1.00E-5 Molar one dose
Procedure: as §1, §2

M14 (Melanoma) = assay: NCI one dose, M14; settings: M14, 1.00E-5 Molar one dose
Procedure: as §1, §2

KM12 (Colon Cancer) = assay: NCI one dose, KM12; settings: KM12, 1.00E-5 Molar one dose
Procedure: as §1, §2

LOX IMVI (Melanoma) = assay: NCI one dose, LOX IMVI; settings: 1.00E-5 Molar one dose
Procedure: as §1, §2

SK-MEL-28 (Melanoma) = assay: NCI one dose, SK-MEL-28; settings: SK-MEL-28, 1.00E-5 Molar one dose
Procedure: as §1, §2

SF-295 (CNS Cancer) = assay: NCI one dose, SF-295; settings: SF-295, 1.00E-5 Molar one dose
Procedure: as §1, §2

MALME-3M (Melanoma) = assay: NCI one dose, MALME-3M; settings: 1.00E-5 Molar one dose
Procedure: as §1, §2

UO-31 renal cancer cells = assay: NCI one dose, UO-31; settings: UO-31, 1.00E-5 Molar one dose
Procedure: as §1, §2

[5] = system: A549/ATCC (Non-Small Cell Lung Cancer); assay: NCI one dose, A549/ATCC; settings: 1.00E-5 Molar one dose
Procedure: as §1, §2

MDA-MB-435 (Melanoma) = assay: NCI one dose, MDA-MB-435; settings: MDA-MB-435, 1.00E-5 Molar one dose
Procedure: as §1, §2

[6] = system: HOP-92 (Non-Small Cell Lung Cancer); assay: NCI one dose, HOP-92; settings: HOP-92, 1.00E-5 Molar one dose
Procedure: as §1, §2

[7] = system: NCI-H322M (Non-Small Cell Lung Cancer); assay: NCI one dose, NCI-H322M; settings: 1.00E-5 Molar one dose
Procedure: as §1, §2

CCRF-CEM (Leukemia) = assay: NCI one dose, CCRF-CEM; settings: 1.00E-5 Molar one dose
Procedure: as §1, §2

786-0 (Renal Cancer) = assay: NCI one dose, 786-0; settings: 786-0, 1.00E-5 Molar one dose
Procedure: as §1, §2

SF-268 (CNS Cancer) = assay: NCI one dose, SF-268; settings: SF-268, 1.00E-5 Molar one dose
Procedure: as §1, §2

U251 (CNS Cancer) = assay: NCI one dose, U251; settings: U251, 1.00E-5 Molar one dose
Procedure: as §1, §2

COLO 205 (Colon Cancer) = assay: NCI one dose, COLO 205; settings: COLO 205, 1.00E-5 Molar one dose
Procedure: as §1, §2

A498 (Renal Cancer) = assay: NCI one dose, A498; settings: A498, 1.00E-5 Molar one dose
Procedure: as §1, §2

Compound	Growth Percent (HCT-116 (Colon Cancer)) [%]	Growth Percent (K-562 leukaemia cells) [%]	Growth Percent (IGROV1 (Ovarian Cancer)) [%]	Growth Percent (RPMI-8226 (Leukemia)) [%]	Growth Percent (OVCAR-4 (Ovarian Cancer)) [%]	Growth Percent (PC-3 (Prostate Cancer)) [%]	Growth Percent [1] [%]	Growth Percent (HS 578T (Breast Cancer)) [%]	Growth Percent (HCC-2998 (Colon Cancer)) [%]	Growth Percent (RXF 393 (Renal Cancer)) [%]	Growth Percent (SNB-75 (CNS Cancer)) [%]	Growth Percent (SW-620 (Colon Cancer)) [%]	Growth Percent (SK-MEL-2 (Melanoma)) [%]	Growth Percent (OVCAR-8 (Ovarian Cancer)) [%]	Growth Percent [2] [%]	Growth Percent (DU-145 (Prostate Cancer)) [%]	Growth Percent (CAKI-1 (Renal Cancer)) [%]	Growth Percent [3] [%]	Growth Percent [4] [%]	Growth Percent (MCF7 (Breast Cancer)) [%]	further results
COc1ccccc1CNC(=O)[C@@H]1CS[C@H]2c3ccccc3C(=O)N12 [4aG]	105.23	81.36	109.59	102.98	106.91	102.91	106.16	96.02	120.86	114.62	98.49	105.78	96.50	96.60	109.17	106.12	94.09	106.79	105.58	102.38	Growth Percent (SR (Leukemia)): 83.51%; Growth Percent (T-47D (Breast Cancer)): 98.98%; Growth Percent (M14 (Melanoma)): 104.36%; Growth Percent (KM12 (Colon Cancer)): 105.74%; Growth Percent (LOX IMVI (Melanoma)): 99.95%; Growth Percent (SK-MEL-28 (Melanoma)): 116.98%; Growth Percent (SF-295 (CNS Cancer)): 100.33%; Growth Percent (MALME-3M (Melanoma)): 108.91%; Growth Percent (UO-31 renal cancer cells): 94.39%; Growth Percent [5]: 78.79%; Growth Percent (MDA-MB-435 (Melanoma)): 110.28%; Growth Percent [6]: 102.49%; Growth Percent [7]: 100.55%; Growth Percent (CCRF-CEM (Leukemia)): 101.17%; Growth Percent (786-0 (Renal Cancer)): 107.93%; Growth Percent (SF-268 (CNS Cancer)): 102.73%; Growth Percent (U251 (CNS Cancer)): 99.09%; Growth Percent (COLO 205 (Colon Cancer)): 111.29%; Growth Percent (A498 (Renal Cancer)): 84.76%
C[C@@]12SC[C@@H](C(=O)NCc3ccccc3)N1C(=O)c1ccccc12 [4bA]	97.31	91.39	105.63	104.44	102.82	90.34	98.21	100.47	113.03	108.00	88.09	108.38	92.83	90.77	99.53	110.52	89.87	104.65	98.79	96.64	Growth Percent (SR (Leukemia)): 78.43%; Growth Percent (T-47D (Breast Cancer)): 90.12%; Growth Percent (M14 (Melanoma)): 101.98%; Growth Percent (KM12 (Colon Cancer)): 102.18%; Growth Percent (LOX IMVI (Melanoma)): 101.57%; Growth Percent (SK-MEL-28 (Melanoma)): 105.22%; Growth Percent (SF-295 (CNS Cancer)): 98.04%; Growth Percent (MALME-3M (Melanoma)): 107.28%; Growth Percent (UO-31 renal cancer cells): 99.51%; Growth Percent [5]: 78.86%; Growth Percent (MDA-MB-435 (Melanoma)): 101.35%; Growth Percent [6]: 83.94%; Growth Percent [7]: 96.63%; Growth Percent (CCRF-CEM (Leukemia)): 95.36%; Growth Percent (786-0 (Renal Cancer)): 101.14%; Growth Percent (SF-268 (CNS Cancer)): 109.78%; Growth Percent (U251 (CNS Cancer)): 92.28%; Growth Percent (COLO 205 (Colon Cancer)): 108.00%; Growth Percent (A498 (Renal Cancer)): 91.48%
COc1ccc(CNC(=O)[C@@H]2CS[C@H]3c4ccccc4C(=O)N23)cc1OC [4aI]	98.84	84.27	109.87	99.43	111.31	88.12	92.75	98.06	105.82	110.33	95.63	102.54	80.08	88.68	102.55	107.46	95.39	114.59	99.35	99.04	Growth Percent (SR (Leukemia)): 74.16%; Growth Percent (T-47D (Breast Cancer)): 85.94%; Growth Percent (M14 (Melanoma)): 107.33%; Growth Percent (KM12 (Colon Cancer)): 107.09%; Growth Percent (LOX IMVI (Melanoma)): 99.42%; Growth Percent (SK-MEL-28 (Melanoma)): 110.57%; Growth Percent (SF-295 (CNS Cancer)): 101.16%; Growth Percent (MALME-3M (Melanoma)): 102.18%; Growth Percent (UO-31 renal cancer cells): 94.41%; Growth Percent [5]: 74.91%; Growth Percent (MDA-MB-435 (Melanoma)): 107.42%; Growth Percent [6]: 93.36%; Growth Percent [7]: 101.37%; Growth Percent (CCRF-CEM (Leukemia)): 94.08%; Growth Percent (786-0 (Renal Cancer)): 106.53%; Growth Percent (SF-268 (CNS Cancer)): 104.77%; Growth Percent (U251 (CNS Cancer)): 93.84%; Growth Percent (COLO 205 (Colon Cancer)): 111.84%; Growth Percent (A498 (Renal Cancer)): 89.23%
O=C(NCc1ccccc1)[C@@H]1CS[C@H]2c3ccccc3C(=O)N12 [4aA]	87.66	101.44	105.80	105.32	111.39	96.96	100.85	107.68	101.83	114.31	84.04	102.46	105.03	101.18	100.79	111.90	94.90	105.39	99.86	87.71	Growth Percent (M14 (Melanoma)): 94.47%; Growth Percent (KM12 (Colon Cancer)): 110.51%; Growth Percent (LOX IMVI (Melanoma)): 97.27%; Growth Percent (SK-MEL-28 (Melanoma)): 110.09%; Growth Percent (SF-295 (CNS Cancer)): 99.96%; Growth Percent (MALME-3M (Melanoma)): 111.55%; Growth Percent (UO-31 renal cancer cells): 91.66%; Growth Percent [5]: 97.86%; Growth Percent (MDA-MB-435 (Melanoma)): 106.84%; Growth Percent [6]: 87.72%; Growth Percent [7]: 102.34%; Growth Percent (CCRF-CEM (Leukemia)): 96.52%; Growth Percent (786-0 (Renal Cancer)): 85.46%; Growth Percent (SF-268 (CNS Cancer)): 90.56%; Growth Percent (U251 (CNS Cancer)): 97.80%; Growth Percent (A498 (Renal Cancer)): 102.15%
